Assay results reported in patent US20070238146A1, “Kinetic metabolic assay for antifungal susceptibility testing” (priority 2006, published 2007).

Experiments:
Assay type in all cases: cell-based, Candida albicans
[1] = test system: planktonic C. albicans cells; test: kinetic metabolic assay (KMA, alamarBlue) of planktonic cells after 1 h AmB treatment
Description: Planktonic cultures. Cultures were grown aerobically in 250-ml Erlenmeyer flasks containing 100 ml growth medium. The flasks were placed in a shaker incubator at 37° C. and 160 rpm for the desired period of growth. C. albicans grew as budding yeast under these conditions. Exponential phase cells were harvested after a 5-h growth period and stationary-phase cells at 96 h.
AmB treatment. AmB was from Biosource International Inc. (Fungizone with 0.00205% sodium deoxycholate solubilizing agent). A standard broth dilution method was used to assess the AmB MlC of CA-1, with ATCC 24433 used as a reference strain (32). AmB treatment of planktonic cells and shear-removed biofilm was preformed in 1.5-ml centrifuge tubes. The tubes contained a total working volume of 450 μl. AmB dissolved in 200 μl of 0.1 M PBS (pH 7.0), and cells resuspended in 250 μl of PBS adjusted to an optical density of 0.05 (A660) were added to the 1.5-ml tube. After more than 10 preliminary experiments, the time between recovery of the shear-removed biofilm in the petri dish and exposure to AmB was reduced to approximately 5 min. The positive controls had no AmB, and the negative controls had no cells. For AmB treatment of the basal blastospore population, each sample consisted of a 0.5-cm long section of tubing cut from the TF. Each tubing sample was positioned in the 96-well plate (Corning Inc.; Costar 3370) such that its outer wall snugly fit along the wall of the well in the 96-well plate. This enabled recording of absorbance data for the metabolic indicator in real time without perturbing the well contents. The 0.5-cm tubing samples were randomly placed in the 96-well plate in order to randomize the distribution between treated samples and untreated controls. Solution (225 μl) containing AmB in 0.1 M PBS was added to wells to completely submerge the 0.5-cm tubing during the AmB treatment phase. Untreated samples were the positive controls. Three independent TF experiments were run, generating 24 samples per AmB concentration and 61 untreated controls for the basal blastospores. Sterile tubing was used as a negative control. In every experiment, a minimum of four negative controls were used. The AmB treatment period was 1 h across all cell populations. During AmB exposure, the 1.5-m1 tubes (containing either the planktonic or shear-removed populations) and 96 -well plates (containing the basal blastospores) were placed in a shaker incubator at 37° C. and 150 rpm. […]
Kinetic curves. Kinetic data of the reduction of metabolic indicators and turbidimetric changes were recorded for both AmB treated and untreated samples. […] The kinetic assay in the 96 well format was run for 24 h at 37° C. with continuous shaking in a Synergy-HT plate reader (Biotek Inc.). […]

[2] = test system: planktonic C. albicans cells; test: CFU assay of planktonic cells after AmB treatment; conditions: exponential phase planktonic cells
Description: CFU assay. CFU were estimated for both AmB treated and untreated planktonic sample. 100 μl planktonic C. albicans cells in PBS were serially diluted in 2 ml cuvettes (catalog no. BTCUV, Biotrace Inc.). The serial dilution was 10-fold across each cuvette. The required number of serial dilutions per sample were judged based on trial and error. A volume of 100 μl from each serially diluted cuvette was spread as a separate lane on an agar plate. […] Plates were incubated at 37° C. for 24 hours. CFU were estimated from dilutions whose numbers fell in the range of 10 to 100 colonies per lane. The appropriate dilution factor was multiplied to estimate the final viable cell concentration for every sample.
AmB treatment. AmB was from Biosource International Inc. (Fungizone with 0.00205% sodium deoxycholate solubilizing agent). A standard broth dilution method was used to assess the AmB MlC of CA-1, with ATCC 24433 used as a reference strain (32). AmB treatment of planktonic cells and shear-removed biofilm was preformed in 1.5-ml centrifuge tubes. The tubes contained a total working volume of 450 μl. […] This enabled recording of absorbance data for the metabolic indicator in real time without perturbing the well contents. […]
(ii) Calculation of percent viability. Viability in terms of CFU was calculated by using the kinetic parameters estimated for each sample and the corresponding calibrations. […]

[3] = test system: C. albicans biofilm basal blastospores; test: KMA for in situ biofilm susceptibility testing (alamarBlue, modified medium, t-threshold)
Description: Biofilm cultures. Biofilms were grown in a tubular flow cell (TF). Silicone tubing (Cole-Panmer; catalog no. EW-95802-08) with an inner diameter of 4.78 mm, an outer diameter of 6.35 mm, a wall of 0.79 mm, and a length of 60 cm constituted the biofilm-growing region of the TF. The source of growth medium for the TF was a 2-liter Erlenineyer flask. A bubble trap was placed between the Erlenmeyer flask and the TF to prevent passage of air bubbles during biofilm growth. Flow rates of 1.17 ml/min (shear rate, 109.5 s^−1) were maintained by a peristaltic pump coupled at the effluent end of the TF. The residence time for the volume of liquid contained in the tubular reactor portion of the flow system (20-cm length of tubing) was 3 min. This condition ensured that the contribution to the cell population in the TF from cells in the planktonic mode of growth (doubling time, approximately 80 min) was negligible. After sterilization by autoclaving, the entire setup was placed horizontally on a grilled shelf in an incubator at 37° C. The TF was filled with growth medium before being inoculated with cells. The inoculum was prepared from a 24-h planktonic culture at a concentration of 10^8 cells/ml in 0.1 M phosphate-buffered saline (PBS, pH 7) buffer. It was fed into the TF from the effluent end by reversing the direction of flow. Flow was then discontinued for 1 h. After the 1 -h inoculation period, flow was resumed for 36 h. At the end of this culture period, the section of tubing in which the biofilm grew was clamped at both ends and removed by cutting the tubing with a sterile blade. The liquid column was drained into a petri dish by moving the tubing to a vertical position and releasing the clamps. The tubing was then rinsed with PBS buffer equivalent to one tube volume. The fraction of biofilm collected in the petri dish by this procedure is referred to as the shear-removed biofilm. […]
AmB treatment. […] This enabled recording of absorbance data for the metabolic indicator in real time without perturbing the well contents. […]

## C[C@@H]1[C@H](O)[C@@H](C)/C=C/C=C/C=C/C=C/C=C/C=C/C=C/[C@H](O[C@@H]2O[C@H](C)[C@@H](O)[C@H](N)[C@@H]2O)C[C@@H]2O[C@](O)(C[C@@H](O)C[C@@H](O)[C@H](O)CC[C@@H](O)C[C@@H](O)CC(=O)O[C@H]1C)C[C@H](O)[C@H]2C(=O)O [AmB, amphotericin B]
[1]; exponential phase planktonic cells, KMA, 1 h AmB treatment
  AmB concentration beyond which complete killing is achieved: > 1.77 µg/mL
[1]; modified medium, exponential-phase cells, alamarBlue, t-threshold (FIG. 5)
  AmB concentration up to which viability is detected: 1.77 µg/mL
[1]; stationary phase planktonic cells, alamarBlue, t-threshold, 1 h AmB treatment (FIG. 6)
  AmB concentration up to which cells survive: 3.55 µg/mL
[1]; unmodified medium, exponential-phase cells, alamarBlue, t-threshold (FIG. 5)
  AmB concentration up to which viability is detected (detection limit): 0.88 µg/mL
[2]
  AmB concentration beyond which complete killing was observed: > 1.77 µg/mL
[3]; AmB concentrations greater than or equal to 3.7 μg/ml, versus shear removed biofilm, stationary and exponential phase planktonic cells
  activity of basal blastospores relative to other populations: clearly more active than the other three populations
[3]; basal blastospore subpopulation in situ, highest tested concentration, 1 h AmB treatment
  AmB concentration up to which metabolic activity was exhibited: 28.26 µg/mL
[3]; lower AmB concentrations (<1.77 μg/ml)
  loss of metabolic activity of basal blastospores relative to other samples: greater loss of metabolic activity than the other samples
